Reference: patent publication US20040142979A1, “Heteroarylsulfonylmethyl hydroxamic acids and amides and their use as protease inhibitors” (priority 2002, published 2004)

Key:
Human recombinant MMP-1 = biological target: T1, Human recombinant MMP-1 (Homo sapiens, UniProt P03956); assay: In vitro MMP inhibition analysis (fluorogenic peptide substrate), MMP-1; type: biochemical; settings: human recombinant enzyme; 4 μM substrate (A); apparent Ki without substrate correction
T1 construct: made in house; host or cells: MMP-1-transfected HT-1080 cells (spent media)
T1 sequence (P03956 100-469): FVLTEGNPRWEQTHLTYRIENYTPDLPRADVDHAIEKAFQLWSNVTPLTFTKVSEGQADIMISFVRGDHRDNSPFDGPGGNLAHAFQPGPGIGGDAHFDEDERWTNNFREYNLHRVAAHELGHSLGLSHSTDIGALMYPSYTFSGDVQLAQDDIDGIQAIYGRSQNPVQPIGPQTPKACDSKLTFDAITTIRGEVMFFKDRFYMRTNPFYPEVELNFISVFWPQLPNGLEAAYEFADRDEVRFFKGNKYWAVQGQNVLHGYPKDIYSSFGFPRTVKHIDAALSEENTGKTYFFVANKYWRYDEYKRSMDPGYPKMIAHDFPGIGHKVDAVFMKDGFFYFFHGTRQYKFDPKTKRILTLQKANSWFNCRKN
Experimental: (§1) Several compounds and salts were analyzed in an in vitro assay to determine their ability to inhibit the MMP cleavage of peptide substrates. Inhibition constant (Ki) were calculated from the assayed compound-MMP interactions.
(§2) Human recombinant MMP-1, MMP-2, MMP-9, MMP-13, and MMP-14 were used in this assay. All enzymes were prepared in Assignee's laboratories following usual laboratory procedures. Protocols for the preparation and use of these enzymes are available in the scientific literature. See, e.g., Enzyme Nomenclature (Academic Press, San Diego, Calif., 1992) (and the citations therein). See also, Freije et al., J. Biol. Chem., 269(24), 16766-16773 (1994).
The MMP-1 proenzyme was purified from the spent media of MMP-1-transfected HT-1080 cells provided by Dr. Harold Welgus of Washington University (St. Louis, Mo.). The protein was purified on a zinc chelating column.
(§3) All MMPs were activated using 4-aminophenylmercuric acetate (“APMA”, Sigma Chemical, St. Louis, Mo.) or trypsin. MMP-9 also was activated using human recombinant MMP-3 (purified in Assignee's laboratory following standard cloning and purification techniques).
(§4) The following fluorogenic, methoxycoumarin-containing polypeptide substrate (A) was used in the MMP inhibition assays:
(§5) MCA-ArgProLeuGlyLeuDpaAlaArgGluArgNH2 (A)
(§6) “MCA” is 7-methoxycoumarin-4-yl acetyl. Substrate (A) was prepared Assignee's laboratory. In the absence of MMP inhibitory activity, the substrate is cleaved at the Gly-Leu peptide bond. This cleavage separates the highly fluorogenic peptide from the 2,4-dinitrophenyl quencher, thus resulting in increase of fluorescent intensity.
(§7) The stock solutions of the assayed compounds and salts were prepared in 1% dimethyl sulfoxide (DMSO). These stock solutions were diluted in Buffer A (100 mM Tris-HCl, 100 mM NaCl, 10 mM CaCl2, 0.05% polyoxyethylene 23 lauryl ether, pH 7.5) to obtain solutions with different compound concentrations, i.e., assay solutions with different concentrations of the assayed MMP inhibitory compound. The experiment controls contained the same amount of Buffer A/DMSO as the assayed sample, but contained none of the tested compound or salt.
(§8) The assays from which the Ki determinations were made were performed as follows. The assayed compound samples were incubated in separate wells of untreated white polystyrene plates (Nunc Nalgene International, Rochester, N.Y.), and analyzed on a Tecan SpectraFlour Plus plate reader. The excitation wavelength was 330 nm, and the emission wavelength -420 nm. All samples (assayed compounds and controls) were incubated in separate plate wells at room temperature for 1 hr in the presence of 4 μM of MMP substrate (A). In the absence of MMP inhibitory activity, substrate (A) was cleaved at the Gly-Leu bond resulting in an increase of relative fluorescence. Inhibition was observed as a reduced rate of this increase in relative fluorescence. […] This protocol is a modification of method by Knight et al., FEBS Lett., 296(3), 263-266 (1992). Apparent inhibitory constants were determined by non-linear regression of reaction velocity as a function of inhibitor and enzyme concentration using Morrison's equation, as described by Kuzmic, P., et al., Anal. Biochem., 286(1):45-50 (2000). Modifications were made in the non-linear regression method to allow a common control reaction rate and effective enzyme concentration to be shared between all dose-response relationships on a given assay plate. Since the substrate concentration was chosen to be at or below the Km, the apparent Ki's from this analysis were reported as Ki's without correction for the influence of substrate.
(§9) The above protocols were used to determine MMP inhibition Ki constants for the compounds in Examples 1, 2, and 4-42 above. All Ki values in Table 3 are given in nM units.

Human recombinant MMP-9 = biological target: T2, Human recombinant MMP-9 (Homo sapiens, UniProt P14780); assay: In vitro MMP inhibition analysis (fluorogenic peptide substrate), MMP-9; type: biochemical; settings: human recombinant enzyme; 4 μM substrate (A); apparent Ki without substrate correction
T2 construct: made in house; host or cells: MMP-9-transfected HT1080 cells (spent media)
T2 sequence (P14780 107-707 limits assumed): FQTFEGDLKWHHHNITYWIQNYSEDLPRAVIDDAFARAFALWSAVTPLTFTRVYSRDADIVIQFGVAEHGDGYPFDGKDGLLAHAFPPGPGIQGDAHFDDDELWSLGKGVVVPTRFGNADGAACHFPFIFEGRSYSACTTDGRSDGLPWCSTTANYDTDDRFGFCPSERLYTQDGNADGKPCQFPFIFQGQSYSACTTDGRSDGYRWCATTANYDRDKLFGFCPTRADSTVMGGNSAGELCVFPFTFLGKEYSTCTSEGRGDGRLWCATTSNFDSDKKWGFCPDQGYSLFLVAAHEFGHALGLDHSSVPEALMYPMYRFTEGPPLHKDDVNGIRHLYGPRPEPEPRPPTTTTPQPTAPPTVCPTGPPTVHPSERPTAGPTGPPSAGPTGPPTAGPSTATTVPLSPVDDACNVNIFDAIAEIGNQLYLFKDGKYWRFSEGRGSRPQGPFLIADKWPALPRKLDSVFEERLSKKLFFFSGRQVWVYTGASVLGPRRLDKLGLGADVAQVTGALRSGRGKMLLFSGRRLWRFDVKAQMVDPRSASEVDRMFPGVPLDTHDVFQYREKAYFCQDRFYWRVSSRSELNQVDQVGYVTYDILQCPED
Experimental: as §1, §2
The MMP-9 proenzyme was purified by gelatin Sepharose chromatography from spent media of MMP-9-transfected HT1080 cells provided by Dr. Howard Welgus of Washington University (St. Louis, Mo.).
as §3, §4, §5, §6, §7, §8, §9

| SMILES | Ki (Human recombinant MMP-1) [nM] | Ki (Human recombinant MMP-9) [nM] |
| --- | --- | --- |
| CCCCOc1ccc(-c2ccc(S(=O)(=O)C3(C(=O)NO)CCOCC3)s2)cc1 [Example 43] | > 1250 | 0.806 |
| O=C(NO)C1(S(=O)(=O)c2ccc(-c3ccc(OC(F)(F)C(F)F)cc3)s2)CCOCC1 [Example 44] | 1120 | 0.354 |
| CCCCCc1ccc(-c2ccc(S(=O)(=O)C3(C(=O)NO)CCOCC3)cn2)cc1 [Example 45] | > 10000 | 8.96 |
| O=C(NO)C1(S(=O)(=O)c2ccc(-c3ccc(OCC(F)(F)F)cc3)nc2)CCOCC1 [Example 46] | 4340 | 0.988 |
| O=C(NO)C1(S(=O)(=O)c2ccc(-c3ccc(OC(F)(F)C(F)F)cc3)nc2)CCOCC1 [Example 47] | 1490 | 1.53 |
| O=C(NO)C1(S(=O)(=O)c2ccc(-c3ccc(OC(F)(F)C(F)F)cc3)nc2)CCOCC1 [Example 48] | 1240 | 1.06 |
| O=C(NO)C1(S(=O)(=O)c2ccc(-c3ccc(CCC(F)(F)C(F)(F)F)cn3)s2)CCOCC1 [Example 49] | > 10000 | 10.2 |
| O=C(NO)C1(S(=O)(=O)c2ccc(-c3ccc(C(F)(F)F)cn3)s2)CCOCC1 [Example 50] | > 10000 | 133 |
| O=C(NO)C1(S(=O)(=O)c2ccc3nc(-c4ccc(OC(F)(F)F)cc4)sc3c2)CCOCC1 [Example 51] | 6530 | 0.636 |
| CCCCc1ccc(C(=O)C2CCN(c3nc4ccc(S(=O)(=O)C5(C(=O)NO)CCOCC5)cc4s3)CC2)s1 [Example 52] | > 10000 | 837 |
| CCCc1ccc(-c2nc3ccc(S(=O)(=O)C4(C(=O)NO)CCOCC4)cc3s2)cc1 [Example 53] | > 10000 | 12.8 |
| CC(C)Cc1ncc(-c2nc3ccc(S(=O)(=O)C4(C(=O)NO)CCOCC4)cc3s2)s1 [Example 54] | > 10000 | 99 |
| O=C(NO)C1(S(=O)(=O)c2ccc3nc(-c4cccc(C(F)(F)F)c4)sc3c2)CCOCC1 [Example 55] | > 10000 | 3310 |
| O=C(NO)C1(S(=O)(=O)c2ccc3nc(N4CCC(Oc5ccc(OC(F)(F)F)cc5)CC4)sc3c2)CCOCC1 [Example 56] | > 10000 | 68.5 |
| O=C(NO)C1(S(=O)(=O)c2ccc3nc(-c4ccc(C(F)(F)F)cc4)sc3c2)CCOCC1 [Example 57] | > 10000 | 0.964 |
| CCc1ccc(-c2nc3ccc(S(=O)(=O)C4(C(=O)NO)CCOCC4)cc3s2)cc1 [Example 58] | > 10000 | 1.06 |
| O=C(NO)C1(S(=O)(=O)c2ccc3nc(-c4ccc(Cl)s4)sc3c2)CCOCC1 [Example 59] | > 1250 | 5.09 |
| O=C(NO)C1(S(=O)(=O)c2ccc3nc(-c4ccc(F)c(F)c4)sc3c2)CCOCC1 [Example 60] | 2840 | 14.1 |
| O=C(NO)C1(S(=O)(=O)c2ccc3nc(-c4ccc(F)cc4F)sc3c2)CCOCC1 [Example 61] | > 10000 | 21.5 |
| O=C(NO)C1(S(=O)(=O)c2ccc3nc(-c4ccsc4)sc3c2)CCOCC1 [Example 62] | 2020 | 40.5 |

| SMILES | Ki (Human recombinant MMP-1) [nM] | Ki (Human recombinant MMP-9) [nM] |
| --- | --- | --- |
| COCCN1CCC(C(=O)NO)(S(=O)(=O)c2ccc3nc(-c4ccc(OC(F)(F)F)cc4)sc3c2)CC1 [Example 63] | 9160 | 0.624 |
| O=C(NO)C1(S(=O)(=O)c2ccc3nc(-n4cnc(-c5ccccc5)c4)sc3c2)CCOCC1 [Example 64] | > 10000 | 799 |
| O=C(NO)C1(S(=O)(=O)c2ccc3nc(-c4ccc5c(c4)OCO5)sc3c2)CCOCC1 [Example 65] | > 1250 | 7.2 |
| CCOc1ccc(-c2nc3ccc(S(=O)(=O)C4(C(=O)NO)CCOCC4)cc3s2)cc1 [Example 66] | > 312 | 3.37 |
| O=C(NO)C1(S(=O)(=O)c2ccc3nc(-c4ccc(SC(F)(F)F)cc4)sc3c2)CCOCC1 [Example 67] | > 10000 | 0.471 |
| O=C(NO)C1(S(=O)(=O)c2ccc(-c3ccc(CCC(F)(F)F)cc3)nc2)CCOCC1 [Example 68] | > 10000 | 2.82 |
| O=C(NO)C1(S(=O)(=O)c2ccc(-c3ccc(CCC(F)(F)C(F)(F)F)cc3)nc2)CCOCC1 [Example 69] | > 10000 | 8.93 |
| CCCCc1ccc(C(=O)C2CCN(c3ccc(S(=O)(=O)C4(C(=O)NO)CCOCC4)cn3)CC2)s1 [Example 70] | > 10000 | > 10000 |
| CC(C)CN(C)C(=O)Cc1ccc(-c2ccc(S(=O)(=O)C3(C(=O)NO)CCOCC3)cn2)cc1 [Example 71] | > 10000 | > 10000 |
| O=C(Cc1ccc(-c2ccc(S(=O)(=O)C3(C(=O)NO)CCOCC3)cn2)cc1)N1CCCCC1 [Example 72] | > 10000 | 7770 |
| CCCCNC(=O)Cc1ccc(-c2ccc(S(=O)(=O)C3(C(=O)NO)CCOCC3)cn2)cc1 [Example 73] | > 10000 | 2220 |
| CCCCN(C)C(=O)Cc1ccc(-c2ccc(S(=O)(=O)C3(C(=O)NO)CCOCC3)cn2)cc1 [Example 74] | > 10000 | 4930 |
| CN(C(=O)Cc1ccc(-c2ccc(S(=O)(=O)C3(C(=O)NO)CCOCC3)cn2)cc1)c1ccc(OC(F)(F)F)cc1 [Example 75] | > 10000 | 0.159 |
| CCCCNC(=O)c1ccc(-c2ccc(S(=O)(=O)C3(C(=O)NO)CCOCC3)cn2)cc1 [Example 76] | 4200 | 428 |
| CN(C(=O)c1ccc(-c2ccc(S(=O)(=O)C3(C(=O)NO)CCOCC3)cn2)cc1)c1ccccc1 [Example 78] | > 10000 | 1290 |
| CCN(CC)C(=O)c1ccc(-c2ccc(S(=O)(=O)C3(C(=O)NO)CCOCC3)cn2)cc1 [Example 79] | > 10000 | > 10000 |
| CN(C(=O)c1ccc(-c2ccc(S(=O)(=O)C3(C(=O)NO)CCOCC3)cn2)cc1)c1ccc(OC(F)(F)F)cc1 [Example 81] | > 10000 | 3400 |
| CC(C)CN(C)C(=O)c1ccc(-c2ccc(S(=O)(=O)C3(C(=O)NO)CCOCC3)cn2)cc1 [Example 82] | > 10000 | 894 |
| O=C(NO)C1(S(=O)(=O)c2ccc3c(c2)sc2nc(-c4ccccc4)cn23)CCOCC1 [Example 83] | > 10000 | 2040 |
| O=C(NO)C1(S(=O)(=O)c2ccc(-c3ccc(OC(F)(F)F)cc3)nc2)CCOCC1 [Example 84] | 4480 | 4.26 |
